Assays:
Assay type in all cases: cell-based
[1] = target: T1, FGFR3 (Homo sapiens, UniProt P22607); assay: pERK potency assay (In Cell ELISA), RT112 cells; conditions: RT112 (FGFR3 overexpression/FGFR3-TACC3 fusion) cells, 3 hours
T1 construct: RT112 (FGFR3 overexpression/FGFR3-TACC3 fusion); host or cells: RT112; the other entry of the earlier key: TACC3 (Q9Y6A5, Transforming acidic coiled-coil-containing protein 3)
From the text: (§1) The purpose of this assay is to measure the ability of test compounds to inhibit FGFR mediated downstream signaling cascades, i.e., ERK phosphorylation in cells with FGFR aberrations. FGFR aberrations become constitutively active and thus induces cascades of cellular signaling events that result in increased phosphorylation of ERK at Threonine 202 and Tyrosine 204 (pERK). The procedure called In Cell ELISA described below measures the level of cellular pERK in response to FGFR specific inhibitor compounds in FGFR aberrations of AN3CA (FGFR2/k310R, N549K), DMS114 (FGFR1 amplification), RT112 (FGFR3 overexpression/FGFR3-TACC3 fusion) and Hep3B (FGF19 amplification) cells. AN3CA, DMS114 and Hep3B cells are from ATCC. RT112 cells are from Sigma. DMS114 cells are grown and maintained using RPMI-1640 medium supplemented with 10% heat-inactivated fetal bovine serum. AN3CA, Hep3B and RT112 cells are grown and maintained using DMEM supplemented with 10% heat-inactivated fetal bovine serum. On the day before test compound addition, cells are plated in poly-D-lysine coated 96-well cell culture plates (Corning® BioCoat® Cat #356640) at 40000 cells/well/100 μL and grown overnight in a 37° C., 5% CO2 incubator. Test compounds are prepared with 4-fold serial dilutions in DMSO, with a top concentration of 10 μM. On the day of the assay, 50 μL of test compound diluted in media was added to each well of cell culture plate with the final concentration of compounds spanning from 0.000038 μM to 10 μM. After compound addition, cells are incubated for 3 hours at 37° C., 5% CO2 and then the culture medium is removed. Cells are fixed with 4% formaldehyde in phosphate-buffered saline (PBS) and incubated at RT for 20 min. The plate is then washed three times with PBST (PBS with 0.05% tween-20), followed by the incubation with 100 μL of pre-cooled methanol at −20° C. for 20 min. After incubation, methanol is removed, and the plate is washed once with PBST. Cells are permeabilized with 100 µL/well of 0.1% Triton X-100 in PBS at RT for 20 min and then quenched with quenching buffer (PBST containing 1% H2O2 and 0.1% sodium azide) for 20 min at RT with gentle shaking. After washing once with PBST, blocking buffer (250 ul/well, Pierce™ Protein-Free-PBS Blocking Buffer, Cat #37572) was then added to the cells for 1-h incubation at RT, followed by anti-pERK antibody (cell signaling, 1:1000 dilution in 5% BSA in PBST) incubation overnight at 4° C. and secondary antibody-HRP (Jackson immunoresearch, 1:3000 dilution in 5% BSA in PBST) incubation at RT for 1 h. PBST wash is carried out after each step three times. Before the addition of the substrate (Advansta ELISABright), the plate is washed with PBS twice to remove detergent residues. Cellular pERK level is determined using the microplate reader (Biotek Synergy H1) to detect the chemiluminescence signal. IC50 is determined by fitting a 4-parameter sigmoidal concentration-response model. FGFR wild type cells (H1975, PC-9 and AGS) are used to serve as negative control (FGFR selectivity) with the same assay procedures described above.

[2] = target: T2, FGFR2 (Homo sapiens, UniProt P21802, K310R/N549K); assay: pERK potency assay (In Cell ELISA), AN3CA cells; conditions: for IC50: pERK, AN3CA (FGFR2/k310R, N549K) cells, 3 hours; for FGFR1 IC50/FGFR2 IC50 / FGFR3 IC50/FGFR2 IC50: selectivity ratio, pERK potency; for FGFR1 IC50/FGFR2 IC50: FGFR2 relative to FGFR1; for FGFR3 IC50/FGFR2 IC50: FGFR2 relative to FGFR3
T2 construct: in FGFR aberrations of AN3CA (FGFR2/k310R, N549K); host or cells: AN3CA
From the text: as §1

[3] = target: T3, FGFR1 (Homo sapiens, UniProt P11362); assay: pERK potency assay (In Cell ELISA), DMS114 cells; conditions: DMS114 (FGFR1 amplification) cells, 3 hours
T3 construct: DMS114 (FGFR1 amplification); host or cells: DMS114
From the text: as §1

T3 sequence (P11362 22-822): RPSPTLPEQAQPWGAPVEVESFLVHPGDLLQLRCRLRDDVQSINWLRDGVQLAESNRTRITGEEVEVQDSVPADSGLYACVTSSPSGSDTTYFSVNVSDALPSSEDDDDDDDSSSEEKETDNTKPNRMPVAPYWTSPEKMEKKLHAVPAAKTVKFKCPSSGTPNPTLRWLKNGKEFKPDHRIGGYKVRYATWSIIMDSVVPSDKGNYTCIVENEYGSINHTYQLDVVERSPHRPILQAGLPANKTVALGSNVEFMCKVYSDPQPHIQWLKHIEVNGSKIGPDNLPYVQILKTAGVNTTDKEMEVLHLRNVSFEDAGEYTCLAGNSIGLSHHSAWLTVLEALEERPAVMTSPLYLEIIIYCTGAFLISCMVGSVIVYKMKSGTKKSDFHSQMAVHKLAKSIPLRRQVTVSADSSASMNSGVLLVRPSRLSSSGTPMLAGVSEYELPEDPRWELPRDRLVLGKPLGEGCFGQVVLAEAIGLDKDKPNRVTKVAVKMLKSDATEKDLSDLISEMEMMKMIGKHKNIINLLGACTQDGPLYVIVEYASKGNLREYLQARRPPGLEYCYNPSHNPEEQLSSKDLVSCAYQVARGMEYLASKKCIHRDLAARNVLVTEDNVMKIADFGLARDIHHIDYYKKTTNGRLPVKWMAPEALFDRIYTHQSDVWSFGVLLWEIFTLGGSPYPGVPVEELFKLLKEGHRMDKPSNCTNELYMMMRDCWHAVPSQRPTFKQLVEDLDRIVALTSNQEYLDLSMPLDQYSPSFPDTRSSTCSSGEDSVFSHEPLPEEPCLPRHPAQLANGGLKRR
T2 sequence (P21802 22-821 K310R/N549K): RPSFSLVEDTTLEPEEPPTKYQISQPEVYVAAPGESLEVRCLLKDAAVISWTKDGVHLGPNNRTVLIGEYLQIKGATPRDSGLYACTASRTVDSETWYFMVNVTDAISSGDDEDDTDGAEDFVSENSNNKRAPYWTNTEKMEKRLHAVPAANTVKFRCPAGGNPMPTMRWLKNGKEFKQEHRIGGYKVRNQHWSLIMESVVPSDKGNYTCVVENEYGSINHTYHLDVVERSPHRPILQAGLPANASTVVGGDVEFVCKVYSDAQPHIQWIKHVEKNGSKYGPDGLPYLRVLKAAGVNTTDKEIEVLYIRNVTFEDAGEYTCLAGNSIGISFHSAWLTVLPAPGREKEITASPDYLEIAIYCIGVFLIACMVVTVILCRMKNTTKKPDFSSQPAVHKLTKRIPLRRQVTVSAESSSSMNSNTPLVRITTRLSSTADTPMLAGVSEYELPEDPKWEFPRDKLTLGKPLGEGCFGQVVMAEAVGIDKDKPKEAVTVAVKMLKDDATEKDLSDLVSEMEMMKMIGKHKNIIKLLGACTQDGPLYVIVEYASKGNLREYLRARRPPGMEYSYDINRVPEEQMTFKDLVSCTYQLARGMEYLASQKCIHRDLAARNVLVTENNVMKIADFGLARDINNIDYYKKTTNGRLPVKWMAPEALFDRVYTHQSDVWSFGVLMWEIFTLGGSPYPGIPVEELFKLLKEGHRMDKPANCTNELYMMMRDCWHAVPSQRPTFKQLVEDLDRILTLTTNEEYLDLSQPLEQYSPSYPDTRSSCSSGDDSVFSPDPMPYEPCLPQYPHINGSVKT

SMILES	IC50 [1]	IC50 [2]	FGFR1 IC50/FGFR2 IC50 [2]	FGFR3 IC50/FGFR2 IC50 [2]	IC50 [3]	FGFR3 IC50/FGFR2 IC50 ([2]; given as numeric bound)
C=CC(=O)N1CC2(CC=C(c3c(-c4ccc(Oc5ncccn5)cc4)c4c(N)ncnc4n3C)CC2)C1 [Example 1, 1-(7-(4-amino-7-methyl-5-(4-(pyrimidin-2-yloxy)phenyl)-7H-pyrrolo[2,3-d]pyrimidin-6-yl)-2-azaspiro[3.5]non-6-en-2-yl)prop-2-en-1-one]	> 100 nM	1 to 10 nM	I (a selectivity ratio greater than 1000 but less than or equal to 2000)	F (a selectivity ratio greater than 50 but less than or equal to 150)	> 100 nM	–
C=CC(=O)N1CC2(CC(c3c(-c4ccc(Oc5ncccn5)cc4)c4c(N)ncnc4n3C)C2)C1 [Example 3, 1-(6-(4-amino-7-methyl-5-(4-(pyrimidin-2-yloxy)phenyl)-7H-pyrrolo[2,3-d]pyrimidin-6-yl)-2-azaspiro[3.3]heptan-2-yl)prop-2-en-1-one]	> 100 nM	> 100 nM	–	–	> 100 nM	–
C=CC(=O)N1CCC2(CCC(c3c(-c4ccc(Oc5ncccn5)cc4)c4c(N)ncnc4n3C)CC2)CC1 [Example 6, 1-(9-(4-amino-7-methyl-5-(4-(pyrimidin-2-yloxy)phenyl)-7H-pyrrolo[2,3-d]pyrimidin-6-yl)-3-azaspiro[5.5]undecan-3-yl)prop-2-en-1-one]	> 100 nM	> 100 nM	–	–	> 100 nM	–
C=CC(=O)NC1CC2(CC=C(c3c(-c4ccc(OC)cc4)c4c(N)ncnc4n3C)CC2)C1 (centres unmarked) [Example 7, N-(7-(4-amino-5-(4-methoxyphenyl)-7-methyl-7H-pyrrolo[2,3-d]pyrimidin-6-yl)spiro[3.5]non-6-en-2-yl)acrylamide]	> 100 nM	10 to 30 nM	–	–	> 100 nM	–
C=CC(=O)NC1CC2(CC=C(c3c(-c4ccc(Oc5ncccn5)cc4)c4c(N)ncnc4n3C)CC2)C1 (centres unmarked) [Example 9, N-(7-(4-amino-7-methyl-5-(4-(pyrimidin-2-yloxy)phenyl)-7H-pyrrolo[2,3-d]pyrimidin-6-yl)spiro[3.5]non-6-en-2-yl)acrylamide]	> 100 nM	10 to 30 nM	F (a selectivity ratio greater than 50 but less than or equal to 150)	–	> 100 nM	<50
C=CC(=O)N1CCC2(CC=C(c3c(-c4cccnc4)c4c(N)ncnc4n3C)CC2)CC1 [Example 12, 1-(9-(4-amino-7-methyl-5-(pyridin-3-yl)-7H-pyrrolo[2,3-d]pyrimidin-6-yl)-3-azaspiro[5.5]undec-8-en-3-yl)prop-2-en-1-one]	> 100 nM	10 to 30 nM	G (a selectivity ratio greater than 150 but less than or equal to 500)	H (a selectivity ratio greater than 500 but less than or equal to 1000)	> 100 nM	–
C=CC(=O)N1CCC2(CC=C(c3c(-c4ccnn4C)c4c(N)ncnc4n3C)CC2)CC1 [Example 13, 1-(9-(4-amino-7-methyl-5-(1-methyl-1H-pyrazol-5-yl)-7H-pyrrolo[2,3-d]pyrimidin-6-yl)-3-azaspiro[5.5]undec-8-en-3-yl)prop-2-en-1-one]	> 100 nM	> 100 nM	–	–	> 100 nM	–
C=CC(=O)N1CCC2(CC=C(c3c(C(C)C)c4c(N)ncnc4n3C)CC2)CC1 [Example 15, 1-(9-(4-amino-5-isopropyl-7-methyl-7H-pyrrolo[2,3-d]pyrimidin-6-yl)-3-azaspiro[5.5]undec-8-en-3-yl)prop-2-en-1-one]	> 100 nM	10 to 30 nM	–	F (a selectivity ratio greater than 50 but less than or equal to 150)	> 100 nM	–
C=CC(=O)N1CCC2(CC=C(c3c(-c4ccc(OCCN5CCCC5)cc4)c4c(N)ncnc4n3C)CC2)CC1 [Example 20, 1-(9-(4-amino-7-methyl-5-(4-(2-(pyrrolidin-1-yl)ethoxy)phenyl)-7H-pyrrolo[2,3-d]pyrimidin-6-yl)-3-azaspiro[5.5]undec-8-en-3-yl)prop-2-en-1-one]	> 100 nM	30 to 100 nM	–	F (a selectivity ratio greater than 50 but less than or equal to 150)	> 100 nM	–
C=CC(=O)N1CCC2(CC=C(c3c(-c4ccc(OC5CC(C)C5)nc4)c4c(N)ncnc4n3C)CC2)CC1 (centres unmarked) [Example 25, 1-(9-(4-amino-7-methyl-5-(6-(3-methylcyclobutoxy)pyridin-3-yl)-7H-pyrrolo[2,3-d]pyrimidin-6-yl)-3-azaspiro[5.5]undec-8-en-3-yl)prop-2-en-1-one]	> 100 nM	1 to 10 nM	–	F (a selectivity ratio greater than 50 but less than or equal to 150)	30 to 100 nM	–
C=CC(=O)N1CCC2(CC=C(c3c(-c4cncc(F)c4)c4c(N)ncnc4n3C)CC2)CC1 [Example 27, 1-(9-(4-amino-5-(5-fluoropyridin-3-yl)-7-methyl-7H-pyrrolo[2,3-d]pyrimidin-6-yl)-3-azaspiro[5.5]undec-8-en-3-yl)prop-2-en-1-one]	> 100 nM	1 to 10 nM	F (a selectivity ratio greater than 50 but less than or equal to 150)	H (a selectivity ratio greater than 500 but less than or equal to 1000)	> 100 nM	–
C=CC(=O)N1CCC2(CC=C(c3c(-c4ccc(OC)nc4)c4c(N)ncnc4n3C)CC2)CC1 [Example 30, 1-(9-(4-amino-5-(6-methoxypyridin-3-yl)-7-methyl-7H-pyrrolo[2,3-d]pyrimidin-6-yl)-3-azaspiro[5.5]undec-8-en-3-yl)prop-2-en-1-one]	> 100 nM	≤ 1 nM	G (a selectivity ratio greater than 150 but less than or equal to 500)	H (a selectivity ratio greater than 500 but less than or equal to 1000)	> 100 nM	–
C=CC(=O)N1CCC2(CC=C(c3c(-c4ccnnc4)c4c(N)ncnc4n3C)CC2)CC1 [Example 31, 1-(9-(4-amino-7-methyl-5-(pyridazin-4-yl)-7H-pyrrolo[2,3-d]pyrimidin-6-yl)-3-azaspiro[5.5]undec-8-en-3-yl)prop-2-en-1-one]	> 100 nM	> 100 nM	–	–	> 100 nM	–
C=CC(=O)N1CCC2(CC=C(c3c(-c4cncnc4)c4c(N)ncnc4n3C)CC2)CC1 [Example 32, 1-(9-(4-amino-7-methyl-5-(pyrimidin-5-yl)-7H-pyrrolo[2,3-d]pyrimidin-6-yl)-3-azaspiro[5.5]undec-8-en-3-yl)prop-2-en-1-one]	> 100 nM	30 to 100 nM	F (a selectivity ratio greater than 50 but less than or equal to 150)	G (a selectivity ratio greater than 150 but less than or equal to 500)	> 100 nM	–
C=CC(=O)N1CCC2(CC=C(c3c(-c4ncccn4)c4c(N)ncnc4n3C)CC2)CC1(C)C (centres unmarked) [Example 34, 1-(9-(4-amino-7-methyl-5-(pyrimidin-2-yl)-7H-pyrrolo[2,3-d]pyrimidin-6-yl)-2,2-dimethyl-3-azaspiro[5.5]undec-8-en-3-yl)prop-2-en-1-one]	> 100 nM	1 to 10 nM	H (a selectivity ratio greater than 500 but less than or equal to 1000)	J (a selectivity ratio greater than 2000)	> 100 nM	–

Source: patent publication US20260152503A1, “SPIROBICYCLIC COMPOUNDS” (ACERAND THERAPEUTICS (HONG KONG) LIMITED, priority 2022, published 2026)
